In patent US6737383B1, “Herbicidal oxadiazolidines” (priority 1999, dated 2004):

What was measured:
wheat = experiment: Test B pre/postemergence wheat; type: in vivo, Triticum aestivum
Summary of the method: (§1)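 Herbicidal effect was estimated by eye on a ten-point control scale after plants spent twelve to sixteen days in a greenhouse following soil or foliar treatment. Foliar sprays targeted plants at one to four leaves; all doses were formulated in a non-phytotoxic solvent with surfactant.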

sugar beet = experiment: Test B pre/postemergence sugar beet; type: in vivo, Beta vulgaris
Summary of the method: as §1

duck salad = experiment: Test B flood test duck salad; type: in vivo, Heteranthera limosa
Summary of the method: (§2)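 Flood test on plants grown to the 2-leaf stage; treated plants kept in greenhouse twelve to sixteen days, then visually rated against controls on a 0 (no effect) to 10 (complete control) scale.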

cocklebur = experiment: Test B pre/postemergence cocklebur; type: in vivo, Xanthium strumarium
Summary of the method: as §1

rice = experiment: Test B flood test rice; type: in vivo, Oryza sativa
Summary of the method: as §2

soybean = experiment: Test B pre/postemergence soybean; type: in vivo, Glycine max
Summary of the method: as §1

crabgrass = experiment: Test B pre/postemergence crabgrass; type: in vivo, Digitaria sanguinalis
Summary of the method: as §1

bamyardgrass = experiment: Test B flood test barnyardgrass; type: in vivo, Echinochloa crus-galli
Summary of the method: as §2

surinam grass = experiment: Test B pre/postemergence surinam grass; type: in vivo, Brachiaria decumbens
Summary of the method: as §1

bedstraw = experiment: Test B pre/postemergence bedstraw; type: in vivo, Galium aparine
Summary of the method: as §1

velvetleaf = experiment: Test B pre/postemergence velvetleaf; type: in vivo, Abutilon theophrasti
Summary of the method: as §1

purple nutsedge = experiment: Test B pre/postemergence purple nutsedge; type: in vivo, Cyperus rotundus
Summary of the method: as §1

corn = experiment: Test B pre/postemergence corn; type: in vivo, Zea mays
Summary of the method: as §1

wild oat = experiment: Test B pre/postemergence wild oat; type: in vivo, Avena fatua
Summary of the method: as §1

smallflower flatsedge = experiment: Test B flood test smallflower flatsedge; type: in vivo, Cyperus difformis
Summary of the method: as §2

blackgrass = experiment: Test B pre/postemergence blackgrass; type: in vivo, Alopecurus myosuroides
Summary of the method: as §1

[1] = Postemergence, Rate 62 g/ha, scale 0 to 10, 0 is no effect, 10 is complete control
[2] = Postemergence, Rate 250 g/ha, scale 0 to 10, 0 no effect, 10 complete control
[3] = Preemergence, Rate 62 g/ha, scale 0 to 10 (0 no effect, 10 complete control)
[4] = Preemergence, Rate 125 g/ha, scale 0 to 10 (0 no effect, 10 complete control)
[5] = Preemergence, Rate 250 g/ha, scale of 0 to 10 where 0 is no effect and 10 is complete control
[6] = Preemergence, Rate 500 g/ha, scale 0 (no effect) to 10 (complete control)
[7] = Rate 125 g/ha, Postemergence, scale 0 to 10, 0 no effect, 10 complete control
[8] = Rate 500 g/ha, Postemergence, scale 0 to 10, 0 no effect, 10 complete control
[9] = Rate 125 g/ha, Postemergence section (flood test species), scale 0 to 10, 0 no effect, 10 complete control
[10] = Rate 500 g/ha, listed under Postemergence (flood test species), scale 0 to 10, 0 no effect, 10 complete control
[11] = flood test, listed under Postemergence, Rate 250 g/ha, scale 0 to 10, 0 no effect, 10 complete control

CN(C(=O)n1oc(=O)n(Cc2cccs2)c1=O)c1ccccc1 [Compound 83]
Wheat plant response rating (wheat; [1]): 0
Wheat plant response rating (wheat; [2]): 0
Wheat plant response rating (wheat; [3]): 0
Plant response rating, Wheat (wheat; [4]): 0
Plant response rating, Wheat (wheat; [5]): 0
Wheat plant response rating (wheat; [6]): 0
Wheat plant response rating (wheat; [7]): 0
Wheat plant response rating (wheat; [8]): 0
Sugarbeets plant response rating (sugar beet; [1]): 0
Sugarbeets plant response rating (sugar beet; [2]): 0
Sugarbeets plant response rating (sugar beet; [3]): 0
Plant response rating, Sugarbeets (sugar beet; [4]): 0
Plant response rating, Sugarbeets (sugar beet; [5]): 0
Sugarbeets plant response rating (sugar beet; [6]): 0
Sugarbeets plant response rating (sugar beet; [7]): 0
Sugarbeets plant response rating (sugar beet; [8]): 0
Ducksalad plant response rating (duck salad; [1]): 0
Ducksalad plant response rating (duck salad; [9]): 0
Ducksalad plant response rating (duck salad; [10]): 0
Ducksalad plant response rating (duck salad; [11]): 0
Cocklebur plant response rating (cocklebur; [1]): 0
Cocklebur plant response rating (cocklebur; [2]): 1
Cocklebur plant response rating (cocklebur; [3]): 0
Plant response rating, Cocklebur (cocklebur; [4]): 0
Plant response rating, Cocklebur (cocklebur; [5]): 0
Cocklebur plant response rating (cocklebur; [6]): 0
Cocklebur plant response rating (cocklebur; [7]): 0
Cocklebur plant response rating (cocklebur; [8]): 1
Rice plant response rating (rice; [1]): 0
Rice plant response rating (rice; [9]): 0
Rice plant response rating (rice; [10]): 0
Rice plant response rating (rice; [11]): 0
Soybean plant response rating (soybean; [1]): 0
Soybean plant response rating (soybean; [2]): 0
Soybean plant response rating (soybean; [3]): 0
Plant response rating, Soybean (soybean; [4]): 0
Plant response rating, Soybean (soybean; [5]): 0
Soybean plant response rating (soybean; [6]): 0
Soybean plant response rating (soybean; [7]): 0
Soybean plant response rating (soybean; [8]): 0
Crabgrass plant response rating (crabgrass; [1]): 0
Crabgrass plant response rating (crabgrass; [2]): 0
Crabgrass plant response rating (crabgrass; [3]): 0
Plant response rating, Crabgrass (crabgrass; [4]): 0
Plant response rating, Crabgrass (crabgrass; [5]): 0
Crabgrass plant response rating (crabgrass; [6]): 0
Crabgrass plant response rating (crabgrass; [7]): 0
Crabgrass plant response rating (crabgrass; [8]): 0
Barnyardgrass plant response rating (bamyardgrass; [1]): 0
Barnyardgrass plant response rating (bamyardgrass; [9]): 0
Barnyardgrass plant response rating (bamyardgrass; [10]): 0
Barnyardgrass plant response rating (bamyardgrass; [11]): 0
B. signalgrass plant response rating (surinam grass; [1]): 0
B. signalgrass plant response rating (surinam grass; [2]): 0
B. signalgrass plant response rating (surinam grass; [3]): 0
Plant response rating, B. signalgrass (surinam grass; [4]): 0
Plant response rating, B. signalgrass (surinam grass; [5]): 0
B. signalgrass plant response rating (surinam grass; [6]): 0
B. signalgrass plant response rating (surinam grass; [7]): 0
B. signalgrass plant response rating (surinam grass; Rate 500 g/ha, Postemergence, scale of 0 to 10 where 0 is no effect and 10 is complete control): 0
Bedstraw plant response rating (bedstraw; [1]): 0
Bedstraw plant response rating (bedstraw; [2]): 0
Bedstraw plant response rating (bedstraw; [3]): 0
Plant response rating, Bedstraw (bedstraw; [4]): 0
Plant response rating, Bedstraw (bedstraw; [5]): 0
Bedstraw plant response rating (bedstraw; [6]): 0
Bedstraw plant response rating (bedstraw; [7]): 0
Bedstraw plant response rating (bedstraw; [8]): 0
Velvetleaf plant response rating (velvetleaf; [1]): 0
Velvetleaf plant response rating (velvetleaf; [2]): 2
Velvetleaf plant response rating (velvetleaf; [3]): 0
Plant response rating, Velvetleaf (velvetleaf; [4]): 0
Plant response rating, Velvetleaf (velvetleaf; [5]): 0
Velvetleaf plant response rating (velvetleaf; [6]): 0
Velvetleaf plant response rating (velvetleaf; [7]): 2
Velvetleaf plant response rating (velvetleaf; [8]): 4
Nutsedge plant response rating (purple nutsedge; [1]): 0
Nutsedge plant response rating (purple nutsedge; [2]): 0
Nutsedge plant response rating (purple nutsedge; [3]): 0
Plant response rating, Nutsedge (purple nutsedge; [4]): 0
Plant response rating, Nutsedge (purple nutsedge; [5]): 0
Nutsedge plant response rating (purple nutsedge; [6]): 0
Nutsedge plant response rating (purple nutsedge; [7]): 0
Nutsedge plant response rating (purple nutsedge; [8]): 0
Corn plant response rating (corn; [1]): 0
Corn plant response rating (corn; [2]): 0
Corn plant response rating (corn; [3]): 0
Plant response rating, Corn (corn; [4]): 0
Plant response rating, Corn (corn; [5]): 0
Corn plant response rating (corn; [6]): 0
Corn plant response rating (corn; [7]): 0
Corn plant response rating (corn; [8]): 0
Wild oats plant response rating (wild oat; [1]): 0
Wild oats plant response rating (wild oat; [2]): 0
Wild oats plant response rating (wild oat; [3]): 0
Plant response rating, Wild oats (wild oat; [4]): 0
Plant response rating, Wild oats (wild oat; [5]): 0
Wild oats plant response rating (wild oat; [6]): 0
Wild oats plant response rating (wild oat; [7]): 0
Wild oats plant response rating (wild oat; [8]): 0
S. Flatsedge plant response rating (smallflower flatsedge; [1]): 0
S. Flatsedge plant response rating (smallflower flatsedge; [9]): 0
S. Flatsedge plant response rating (smallflower flatsedge; [10]): 0
S. Flatsedge plant response rating (smallflower flatsedge; [11]): 0
Blackgrass plant response rating (blackgrass; [1]): 0
Blackgrass plant response rating (blackgrass; [2]): 0
Blackgrass plant response rating (blackgrass; [3]): 0
Plant response rating, Blackgrass (blackgrass; [4]): 0
Plant response rating, Blackgrass (blackgrass; [5]): 0
Blackgrass plant response rating (blackgrass; [6]): 0
Blackgrass plant response rating (blackgrass; [7]): 0
Blackgrass plant response rating (blackgrass; [8]): 0
